Converted amounts (≈) assume the structure as drawn. Read-outs that look alike come from different tables or passages of the source.
Assays:
[1] = system: Pseudomonas aeruginosa ATCC 27853, CCM 3955; experiment: Antibacterial microdilution broth method, P. aeruginosa; assay type: cell-based; settings: Pseudomonas aeruginosa, P. aeruginosa
HepG2 cells = experiment: Cytotoxicity, CellTiter 96 assay; assay type: cell-based, human; settings: Homo sapiens, HepG2, 24 h, 24 h incubation
Protocol: HepG2, human hepatocellular carcinoma cells (ATCC HB-8065; passage 5–8) purchased from Health Protection Agency Culture Collections (ECACC, Salisbury, UK) were cultured in Minimum Essentials Eagle Medium supplemented with 10% fetal bovine serum, 1% L-glutamine solution and non-essential amino acid solution (Sigma-Aldrich, St. Louis, MO, USA) in a humidified atmosphere containing 5% CO2 at 37 °C. For subculturing, the cells were harvested after trypsin/EDTA (Sigma-Aldrich, St. Louis, USA) treatment at 37 °C. To evaluate cytotoxicity, the cells treated with the tested substances were used as experimental groups whereas untreated HepG2 cells served as control groups.
The cells were seeded in a density of 10 000 cells per well in a 96-well plate. The following day the cells were treated with each of the tested substances dissolved in DMSO (maximal incubation concentration of DMSO was 1% v/v). The tested substances were prepared at different incubation concentrations in triplicates according to their solubility. Simultaneously, the controls representing 100% cell viability, 0% cell viability (the cells treated with 10% DMSO), no cell control and vehiculum controls were also involved in triplicates. After 24 h incubation in a humidified atmosphere containing 5% CO2 at 37 °C, the reagent from the kit CellTiter 96 AQueous One Solution Cell Proliferation Assay (CellTiter 96; Promega, Fitchburg, WI, USA) was added. After 2 h incubation at 37 °C absorbance of samples was recorded at 490 nm (TECAN, Infinita M200, Grödig, Austria). A standard toxicological parameter IC50 was calculated by nonlinear regression from a semilogarithmic plot of incubation concentration versus percentage of absorbance relative to untreated controls using GraphPad Prism software (version 6; GraphPad Software, Inc., La Jolla, CA, USA).
The CellTiter 96 assay used is based on the reduction of tetrazolium dye in living cells to formazan, which is then determined colorimetrically. This reduction is related to availability of NADH or NADPH. The decline in levels of these metabolically important compounds in the cell causes that the production of formazan is reduced. For quantitative comparison of cytotoxicity, the parameter IC50 was used.

Trichosporon asahii 1188 = experiment: Antifungal microdilution broth method, T. asahii; assay type: cell-based
In short: (§1)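 Duplicate microdilution tests in RPMI-1640 (2% glucose, L-glutamine, MOPS, pH 7.0) with twofold compound dilutions from DMSO gave visually determined MICs. Results counted only when duplicates agreed to within one step; protocol adapted from EUCAST.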

[2] = system: Enterococcus faecalis ATCC 29212, CCM 4224; experiment: Antibacterial microdilution broth method, E. faecalis; assay type: cell-based; settings: Enterococcus faecalis
[3] = system: Staphylococcus aureus ATCC 29213, CCM 4223; experiment: Antibacterial microdilution broth method, S. aureus; assay type: cell-based
[4] = system: ESBL-positive Klebsiella pneumoniae J 14368/08
[5] = system: Trichophyton interdigitale 445; experiment: Antifungal microdilution broth method, T. interdigitale; assay type: cell-based
In short: as §1

[6] = system: Lichtheimia corymbifera 272; experiment: Antifungal microdilution broth method, L. corymbifera; assay type: cell-based
In short: as §1

Candida tropicalis 156 = experiment: Antifungal microdilution broth method, C. tropicalis; assay type: cell-based
In short: as §1

[7] = system: Staphylococcus epidermidis H 6966/08; experiment: Antibacterial microdilution broth method, S. epidermidis; assay type: cell-based; settings: Staphylococcus epidermidis, H6966/08, S. epidermidis
Candida krusei E28 = experiment: Antifungal microdilution broth method, C. krusei; assay type: cell-based; settings: Pichia kudriavzevii
In short: as §1

[8] = system: M. kansasii 6509/96 (clinical isolate); experiment: Antimycobacterial micromethod in Šula's medium, M. kansasii 6509/96; assay type: cell-based; settings: Mycobacterium kansasii
[9] = system: Aspergillus fumigatus 231; experiment: Antifungal microdilution broth method, A. fumigatus; assay type: cell-based
In short: as §1

[10] = system: Mycobacterium avium 330/88; experiment: Antimycobacterial micromethod in Šula's medium, M. avium; assay type: cell-based
[11] = system: Mycobacterium tuberculosis H37Rv (331/88); experiment: Antimycobacterial micromethod in Šula's medium, M. tuberculosis; assay type: cell-based
[12] = system: Candida albicans ATCC 44859; experiment: Antifungal microdilution broth method, C. albicans; assay type: cell-based
In short: as §1

[13] = system: Escherichia coli ATCC 25922, CCM 3954; experiment: Antibacterial microdilution broth method, E. coli; assay type: cell-based; settings: Escherichia coli
[14] = 24 h incubation, read-out: MIC PA 24 h
[15] = 48 h incubation, read-out: MIC PA 48 h
[16] = 24 h incubation, read-out: MIC EF 24 h
[17] = 48 h incubation, read-out: MIC EF 48 h
[18] = 24 h incubation, read-out: MIC SA 24 h
[19] = 48 h incubation, read-out: MIC SA 48 h
[20] = 24 h incubation, read-out: MIC SE 24 h
[21] = 48 h incubation, read-out: MIC SE 48 h
[22] = 168 h, 7 days incubation at 37 °C, read-out: MIC M. kansasii 6509/96 7 d
[23] = 336 h, 14 days incubation at 37 °C, read-out: MIC M. kansasii 6509/96 14 d
[24] = 504 h, 21 days incubation at 37 °C, read-out: MIC M. kansasii 6509/96 21 d
[25] = 330/88, 336 h, 14 days incubation at 37 °C, read-out: MIC M. avium 330/88 14 d
[26] = 330/88, 504 h, 21 days incubation at 37 °C, read-out: MIC M. avium 330/88 21 d
[27] = 336 h, 14 days incubation at 37 °C, read-out: MIC Mtb. 331/88 14 d
[28] = 504 h, 21 days incubation at 37 °C, read-out: MIC Mtb. 331/88 21 d
[29] = ATCC44859, 24 h, read-out: MIC CA 24 h
[30] = ATCC44859, 48 h, read-out: MIC CA 48 h
[31] = 24 h incubation, read-out: MIC EC 24 h
[32] = 48 h incubation, read-out: MIC EC 48 h

Structure (SMILES)	MIC [1, 14] [µM]	MIC [1, 15] [µM]	IC50 (HepG2 cells) [µM]	MIC (Trichosporon asahii 1188; 24 h, read-out: MIC TA 24 h) [µM]	MIC (Trichosporon asahii 1188; 48 h, read-out: MIC TA 48 h) [µM]	MIC [2, 16] [µM]	MIC [2, 17] [µM]	MIC [3, 18] [µM]	MIC [3, 19] [µM]	MIC KP-E 24 h [4] [µM]	MIC KP-E 48 h [4] [µM]	MIC ([5]; 72 h, read-out: MIC TI 72 h) [µM]	MIC ([5]; 120 h, read-out: MIC TI 120 h) [µM]	MIC ([6]; 24 h, read-out: MIC LC 24 h) [µM]	MIC ([6]; 48 h, read-out: MIC LC 48 h) [µM]	MIC (Candida tropicalis 156; 24 h, read-out: MIC CT 24 h) [µM]	MIC (Candida tropicalis 156; 48 h, read-out: MIC CT 48 h) [µM]	MIC [7, 20] [µM]	MIC [7, 21] [µM]	MIC (Candida krusei E28; 24 h, read-out: MIC CK 24 h) [µM]	further results
O=C(O)c1ccc(N=Cc2cc(F)ccc2O)cc1 [1b, 4-[(5-Fluoro-2-hydroxybenzylidene)amino]benzoic acid]	> 500	> 500	498	> 500	> 500	> 500	> 500	> 500	> 500	>500	>500	> 500	> 500	> 500	> 500	> 500	> 500	> 500	> 500	> 500	MIC (Candida krusei E28; 48 h, read-out: MIC CK 48 h): > 500 µM; MIC [8, 22]: 500 µM (≈ 130 µg/mL); MIC [8, 23]: 500 µM (≈ 130 µg/mL); MIC [8, 24]: 500 µM (≈ 130 µg/mL); MIC ([9]; 24 h, read-out: MIC AF 24 h): > 500 µM; MIC ([9]; 48 h, read-out: MIC AF 48 h): > 500 µM; MIC [10, 25]: > 1000 µM; MIC [10, 26]: > 1000 µM; MIC [11, 27]: 500 µM (≈ 130 µg/mL); MIC [11, 28]: 500 µM (≈ 130 µg/mL); MIC [12, 29]: > 500 µM; MIC [12, 30]: > 500 µM; MIC [13, 31]: > 500 µM; MIC [13, 32]: > 500 µM
O=C(O)c1ccc(N=Cc2cc(Cl)ccc2O)cc1 [1c, 4-[(5-Chloro-2-hydroxybenzylidene)amino]benzoic acid]	> 500	> 500	143	> 125	> 125	> 500	> 500	> 500	> 500	>500	>500	125 (≈ 34.5 µg/mL)	125 (≈ 34.5 µg/mL)	> 125	> 125	125 (≈ 34.5 µg/mL)	125 (≈ 34.5 µg/mL)	62.5 (≈ 17.2 µg/mL)	62.5 (≈ 17.2 µg/mL)	125 (≈ 34.5 µg/mL)	MIC (Candida krusei E28; 48 h, read-out: MIC CK 48 h): 125 µM (≈ 34.5 µg/mL); MIC [8, 22]: 500 µM (≈ 138 µg/mL); MIC [8, 23]: 500 µM (≈ 138 µg/mL); MIC [8, 24]: 1000 µM (≈ 276 µg/mL); MIC ([9]; 24 h, read-out: MIC AF 24 h): > 125 µM; MIC ([9]; 48 h, read-out: MIC AF 48 h): > 125 µM; MIC [10, 25]: 1000 µM (≈ 276 µg/mL); MIC [10, 26]: > 1000 µM; MIC [11, 27]: 250 µM (≈ 68.9 µg/mL); MIC [11, 28]: 500 µM (≈ 138 µg/mL); MIC [12, 29]: > 125 µM; MIC [12, 30]: > 125 µM; MIC [13, 31]: > 500 µM; MIC [13, 32]: > 500 µM
O=C(O)c1ccc(N=Cc2cc(Br)ccc2O)cc1 [1d, 4-[(5-Bromo-2-hydroxybenzylidene)amino]benzoic acid]	> 250	> 250	179	125 (≈ 40 µg/mL)	125 (≈ 40 µg/mL)	> 250	> 250	> 250	> 250	>250	>250	62.5 (≈ 20 µg/mL)	62.5 (≈ 20 µg/mL)	> 250	> 250	125 (≈ 40 µg/mL)	125 (≈ 40 µg/mL)	62.5 (≈ 20 µg/mL)	62.5 (≈ 20 µg/mL)	125 (≈ 40 µg/mL)	MIC (Candida krusei E28; 48 h, read-out: MIC CK 48 h): 125 µM (≈ 40 µg/mL); MIC [8, 22]: 500 µM (≈ 160 µg/mL); MIC [8, 23]: 500 µM (≈ 160 µg/mL); MIC [8, 24]: 500 µM (≈ 160 µg/mL); MIC ([9]; 24 h, read-out: MIC AF 24 h): 250 µM (≈ 80 µg/mL); MIC ([9]; 48 h, read-out: MIC AF 48 h): 250 µM (≈ 80 µg/mL); MIC [10, 25]: 500 µM (≈ 160 µg/mL); MIC [10, 26]: 500 µM (≈ 160 µg/mL); MIC [11, 27]: 250 µM (≈ 80 µg/mL); MIC [11, 28]: 500 µM (≈ 160 µg/mL); MIC [12, 29]: 62.5 µM (≈ 20 µg/mL); MIC [12, 30]: 62.5 µM (≈ 20 µg/mL); MIC [13, 31]: > 250 µM; MIC [13, 32]: > 250 µM
O=C(O)c1ccc(N=Cc2cc(I)ccc2O)cc1 [1e, 4-[(2-Hydroxy-5-iodobenzylidene)amino]benzoic acid]	> 250	> 250	113	62.5 (≈ 22.9 µg/mL)	62.5 (≈ 22.9 µg/mL)	> 250	> 250	> 250	> 250	>250	>250	31.2 (≈ 11.5 µg/mL)	31.2 (≈ 11.5 µg/mL)	> 125	> 125	125 (≈ 45.9 µg/mL)	125 (≈ 45.9 µg/mL)	62.5 (≈ 22.9 µg/mL)	62.5 (≈ 22.9 µg/mL)	62.5 (≈ 22.9 µg/mL)	MIC (Candida krusei E28; 48 h, read-out: MIC CK 48 h): 62.5 µM (≈ 22.9 µg/mL); MIC [8, 22]: 250 µM (≈ 91.8 µg/mL); MIC [8, 23]: 250 µM (≈ 91.8 µg/mL); MIC [8, 24]: 500 µM (≈ 184 µg/mL); MIC ([9]; 24 h, read-out: MIC AF 24 h): 125 µM (≈ 45.9 µg/mL); MIC ([9]; 48 h, read-out: MIC AF 48 h): 125 µM (≈ 45.9 µg/mL); MIC [10, 25]: 500 µM (≈ 184 µg/mL); MIC [10, 26]: 500 µM (≈ 184 µg/mL); MIC [11, 27]: 250 µM (≈ 91.8 µg/mL); MIC [11, 28]: 250 µM (≈ 91.8 µg/mL); MIC [12, 29]: 62.5 µM (≈ 22.9 µg/mL); MIC [12, 30]: 62.5 µM (≈ 22.9 µg/mL); MIC [13, 31]: > 250 µM; MIC [13, 32]: > 250 µM

From paper PMC7023430, “4-Aminobenzoic Acid Derivatives: Converting Folate Precursor to Antimicrobial and Cytotoxic Agents” (Biomolecules, 2019)
